Laboratory results reported in publication PMC4412288, “Crystal Structures of the Carboxyl cGMP Binding Domain of the Plasmodium falciparum cGMP-dependent Protein Kinase Reveal a Novel Capping Triad Crucial for Merozoite Egress” (PLoS Pathogens, 2015).
Values joined by “and” are separate entries in the source; they are usually repeats but may differ in a detail not shown here. Equal values may be shown once.

Legend:
[1] = biological target: T1, PfCNB-C (residues 275–428) (Plasmodium falciparum, UniProt Q8I719); test: FP binding measurements, isolated PfCNB-C domain
T1 construct: 275–428 for CNB-C; His-tag (pQTEV, TEV site) (N, cleaved yes); made in house; host or cells: E. coli TP2000 (delta-cya)
T1 sequence (Q8I719 275-428): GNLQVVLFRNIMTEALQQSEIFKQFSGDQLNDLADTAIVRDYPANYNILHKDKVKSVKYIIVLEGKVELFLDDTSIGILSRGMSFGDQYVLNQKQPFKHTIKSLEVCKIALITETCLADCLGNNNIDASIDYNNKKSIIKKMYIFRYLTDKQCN
From the text: A manually designed construct consisting of PfPKG amino acids 1–853 with codons optimized for expression in E.coli was synthesized at Life Technologies. All PfPKG constructs were ligated into the His-tagged bacterial expression vector, pQTEV [28]. In designing the expression constructs of each CNB, we used the sequence of the cGMP selective CNB-B that we recently reported. The domain boundaries for the individual constructs are: residues 1–173 for CNB-A, 158–294 for CNB-B, 275–428 for CNB-C and 401–542 for CNB-D. All PfPKG proteins were expressed in TP2000 E. coli. The cells were grown at 37 °C to an OD600nm of 0.6, then induced with 0.5 mM IPTG, and grown for an additional 10 hours at 25 °C. Cells were harvested by centrifugation, then resuspended in 50 mM potassium phosphate (pH 7.5), 500 mM NaCl and 1 mM β-mercaptoethanol, and lysed using a cell disruptor (Constant Systems).
The direct fluorescence polarization (FP) assay was performed following the procedure from Moll et al. Measurements were performed in 150 mM NaCl, 20 mM MOPS plus 0.005% (w/v) CHAPS pH 7.0 using the Fusion a-FP microtiter plate reader at room temperature in a 384 well microtiterplate (Perkin Elmer, Optiplate, black). The protein concentration was varied while the concentration of 8-Fluo-cAMP/8-Fluo-cGMP (Biolog Life Science Institute (Bremen, Germany)) was fixed at 1–5 nM. […] The KD values were calculated from sigmoidal dose-response curves.
(§1) For competition FP experiments, the protein concentration and the concentration of 8-Fluo-cGMP were fixed to give a polarization signal that was 50% of the maximum value obtained from direct FP measurements. […] FP signals were detected as indicated above. Data were analyzed with GraphPad Prism 5.03 by plotting the polarization signal in mPol against the logarithm of the cyclic nucleotide concentration. The EC50 values were calculated from sigmoidal dose-response curves.

[2] = tested on: PfCNB-C; design: method as in PMID 12817987; settings: cited from earlier work
[3] = biological target: T2, PfPKG PfCNB-B (residues 158–294) (Plasmodium falciparum, UniProt Q8I719); test: Competition FP assay, isolated PfCNB-B domain; type: binding; settings: competition with 8-Fluo-cGMP, read-out: EC50 ± SEM (n) competition measurements
T2 construct: 158–294 for CNB-B; His-tag (pQTEV, TEV site) (N, cleaved yes); made in house; host or cells: E. coli TP2000 (delta-cya)
Experimental: (§2) Measurements were performed in 150 mM NaCl, 20 mM MOPS plus 0.005% (w/v) CHAPS pH 7.0 using the Fusion a-FP microtiter plate reader at room temperature in a 384 well microtiterplate (Perkin Elmer, Optiplate, black). […] The KD values were calculated from sigmoidal dose-response curves.
as §1, with “Data were analyzed with GraphPad Prism 5.03 by plotting the polarization signal in mPol against the logarithm of the cyclic nucleotide concentration.” left out

[4] = tested on: human PKG Iβ CNB-B; design: method as in PMID 24239458; settings: cited from earlier work
[5] = tested on: PfPKG with disabled PfCNB-D; design: method as in PMID 12817987; settings: disabling PfCNB-D by mutation of a putative cGMP-binding residue; cited from earlier work
[6] = biological target: T3, PfPKG (1-853) R484A/Q532A/D533A (Plasmodium falciparum, UniProt Q8I719, D533A/Q532A/R484A); type: biochemical; settings: triple mutant versus wild type
T3 construct: full-length PfPKG (residues 1–853); His-tag (pQTEV, TEV site) (N, cleaved yes); made in house; host or cells: E. coli TP2000 (delta-cya)
T3 sequence (Q8I719 whole entry R484A/Q532A/D533A, the tested form may be a part): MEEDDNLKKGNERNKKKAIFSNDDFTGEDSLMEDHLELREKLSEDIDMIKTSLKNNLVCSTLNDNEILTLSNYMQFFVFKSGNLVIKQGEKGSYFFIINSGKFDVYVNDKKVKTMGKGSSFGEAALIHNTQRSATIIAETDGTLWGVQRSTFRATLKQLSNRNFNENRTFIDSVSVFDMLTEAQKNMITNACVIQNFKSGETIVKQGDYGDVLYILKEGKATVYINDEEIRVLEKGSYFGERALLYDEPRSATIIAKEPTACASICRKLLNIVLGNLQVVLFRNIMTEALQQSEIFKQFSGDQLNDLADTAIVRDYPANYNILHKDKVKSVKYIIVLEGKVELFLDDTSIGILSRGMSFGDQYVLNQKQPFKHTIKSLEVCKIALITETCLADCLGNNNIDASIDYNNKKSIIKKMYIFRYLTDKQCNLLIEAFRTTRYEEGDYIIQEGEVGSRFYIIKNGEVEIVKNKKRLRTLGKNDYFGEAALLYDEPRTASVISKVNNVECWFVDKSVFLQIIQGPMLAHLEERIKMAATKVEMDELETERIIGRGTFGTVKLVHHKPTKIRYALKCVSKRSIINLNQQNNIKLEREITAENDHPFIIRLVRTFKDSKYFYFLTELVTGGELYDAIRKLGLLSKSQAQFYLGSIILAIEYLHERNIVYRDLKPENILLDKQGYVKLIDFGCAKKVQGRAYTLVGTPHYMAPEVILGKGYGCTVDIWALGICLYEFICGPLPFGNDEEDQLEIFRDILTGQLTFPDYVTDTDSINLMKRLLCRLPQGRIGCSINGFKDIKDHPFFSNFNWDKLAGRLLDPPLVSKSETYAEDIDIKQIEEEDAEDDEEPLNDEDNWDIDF
Experimental: (§3) Kinase activity was determined using a microfluidic mobility-shift assay on a Caliper DeskTop Profiler (Caliper Life Sciences, PerkinElmer). […] Reaction mixtures without cyclic nucleotide were used as controls. For electrophoretic separation of substrate and product, a ProfilerPro LabChip (4-sipper mode; Caliper Life Sciences, PerkinElmer) was used under the following conditions: downstream voltage-500 V, upstream voltage-1,900 V with a screening pressure of-1.3 psi.

[7] = biological target: T4, PfPKG (1-853) Wild Type (Plasmodium falciparum, UniProt Q8I719); type: biochemical
T4 construct: full-length PfPKG (residues 1–853); His-tag (pQTEV, TEV site) (N, cleaved yes); made in house; host or cells: E. coli TP2000 (delta-cya)
T4 sequence (Q8I719 whole entry, the tested form may be a part): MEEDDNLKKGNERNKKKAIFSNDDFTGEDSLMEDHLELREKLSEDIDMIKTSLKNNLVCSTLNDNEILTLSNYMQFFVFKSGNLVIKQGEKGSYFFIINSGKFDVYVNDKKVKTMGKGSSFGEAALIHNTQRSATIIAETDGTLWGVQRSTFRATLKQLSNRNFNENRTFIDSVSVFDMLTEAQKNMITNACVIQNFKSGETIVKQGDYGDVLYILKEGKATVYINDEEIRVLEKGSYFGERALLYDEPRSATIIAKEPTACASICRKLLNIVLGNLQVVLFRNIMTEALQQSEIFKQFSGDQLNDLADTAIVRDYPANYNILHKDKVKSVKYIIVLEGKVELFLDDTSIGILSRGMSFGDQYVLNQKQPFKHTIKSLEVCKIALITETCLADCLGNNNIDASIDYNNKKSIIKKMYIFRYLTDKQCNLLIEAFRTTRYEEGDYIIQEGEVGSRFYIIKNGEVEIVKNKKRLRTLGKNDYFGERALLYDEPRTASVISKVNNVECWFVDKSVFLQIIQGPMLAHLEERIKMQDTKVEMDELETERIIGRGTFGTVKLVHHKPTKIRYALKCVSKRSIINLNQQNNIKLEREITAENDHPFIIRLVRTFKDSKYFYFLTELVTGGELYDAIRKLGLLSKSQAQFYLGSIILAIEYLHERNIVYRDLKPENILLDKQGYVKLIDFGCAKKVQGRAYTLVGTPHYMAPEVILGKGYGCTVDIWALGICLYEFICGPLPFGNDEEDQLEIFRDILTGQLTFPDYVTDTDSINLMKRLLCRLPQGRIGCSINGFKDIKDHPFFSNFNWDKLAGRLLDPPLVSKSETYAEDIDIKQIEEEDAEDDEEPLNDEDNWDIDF
Experimental: as §3

[8] = biological target: T5, PfPKG (1-853) D533A (Plasmodium falciparum, UniProt Q8I719, D533A); type: biochemical
T5 construct: full-length PfPKG (residues 1–853); His-tag (pQTEV, TEV site) (N, cleaved yes); made in house; host or cells: E. coli TP2000 (delta-cya)
Experimental: as §3

[9] = biological target: T6, PfPKG CNB-D (401–542) Wild type (Plasmodium falciparum, UniProt Q8I719); type: binding
T6 construct: 401–542 for CNB-D; His-tag (pQTEV, TEV site) (N, cleaved yes); made in house; host or cells: E. coli TP2000 (delta-cya)
T6 sequence (Q8I719 401-542): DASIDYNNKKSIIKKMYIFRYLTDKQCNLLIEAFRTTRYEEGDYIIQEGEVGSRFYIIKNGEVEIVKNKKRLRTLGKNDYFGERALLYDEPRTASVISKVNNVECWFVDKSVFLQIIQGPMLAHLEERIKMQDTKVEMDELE
Experimental: as §2
as §1, with “Data were analyzed with GraphPad Prism 5.03 by plotting the polarization signal in mPol against the logarithm of the cyclic nucleotide concentration.” left out

[10] = biological target: T7, PfPKG full regulatory domain (1–542) R484A/Q532A/D533A (Plasmodium falciparum, UniProt Q8I719, D533A/Q532A/R484A); type: binding; settings: read-out: EC50 ± SEM (n) competition experiments
T7 construct: PfPKG full regulatory domain (1–542); His-tag (pQTEV, TEV site) (N, cleaved yes); made in house; host or cells: E. coli TP2000 (delta-cya)
T7 sequence (Q8I719 1-542 R484A/Q532A/D533A): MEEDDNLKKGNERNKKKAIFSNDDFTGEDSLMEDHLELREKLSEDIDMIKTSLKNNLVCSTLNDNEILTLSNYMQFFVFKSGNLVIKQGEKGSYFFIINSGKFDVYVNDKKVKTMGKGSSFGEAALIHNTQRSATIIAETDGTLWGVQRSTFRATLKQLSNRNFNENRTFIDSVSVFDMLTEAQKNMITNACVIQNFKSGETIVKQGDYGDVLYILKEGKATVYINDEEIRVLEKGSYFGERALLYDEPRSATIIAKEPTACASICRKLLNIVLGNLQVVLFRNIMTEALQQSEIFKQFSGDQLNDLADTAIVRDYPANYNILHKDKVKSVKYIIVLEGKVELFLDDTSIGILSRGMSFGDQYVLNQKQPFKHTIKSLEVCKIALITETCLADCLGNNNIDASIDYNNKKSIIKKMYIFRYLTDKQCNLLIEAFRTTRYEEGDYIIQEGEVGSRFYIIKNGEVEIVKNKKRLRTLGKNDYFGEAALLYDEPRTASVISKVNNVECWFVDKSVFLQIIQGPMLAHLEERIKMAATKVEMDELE
Experimental: as §2
as §1, with “Data were analyzed with GraphPad Prism 5.03 by plotting the polarization signal in mPol against the logarithm of the cyclic nucleotide concentration.” left out

[11] = biological target: T8, PfPKG full regulatory domain (1–542) D533A (Plasmodium falciparum, UniProt Q8I719, D533A); type: binding; settings: read-out: EC50 ± SEM (n) competition experiments
T8 construct: PfPKG full regulatory domain (1–542); His-tag (pQTEV, TEV site) (N, cleaved yes); made in house; host or cells: E. coli TP2000 (delta-cya)
Experimental: as §2
as §1, with “Data were analyzed with GraphPad Prism 5.03 by plotting the polarization signal in mPol against the logarithm of the cyclic nucleotide concentration.” left out

[12] = biological target: T9, PfPKG full regulatory domain (1–542) Wild type (Plasmodium falciparum, UniProt Q8I719); type: binding; settings: read-out: EC50 ± SEM (n) competition experiments
T9 construct: PfPKG full regulatory domain (1–542); His-tag (pQTEV, TEV site) (N, cleaved yes); made in house; host or cells: E. coli TP2000 (delta-cya)
T9 sequence (Q8I719 1-542): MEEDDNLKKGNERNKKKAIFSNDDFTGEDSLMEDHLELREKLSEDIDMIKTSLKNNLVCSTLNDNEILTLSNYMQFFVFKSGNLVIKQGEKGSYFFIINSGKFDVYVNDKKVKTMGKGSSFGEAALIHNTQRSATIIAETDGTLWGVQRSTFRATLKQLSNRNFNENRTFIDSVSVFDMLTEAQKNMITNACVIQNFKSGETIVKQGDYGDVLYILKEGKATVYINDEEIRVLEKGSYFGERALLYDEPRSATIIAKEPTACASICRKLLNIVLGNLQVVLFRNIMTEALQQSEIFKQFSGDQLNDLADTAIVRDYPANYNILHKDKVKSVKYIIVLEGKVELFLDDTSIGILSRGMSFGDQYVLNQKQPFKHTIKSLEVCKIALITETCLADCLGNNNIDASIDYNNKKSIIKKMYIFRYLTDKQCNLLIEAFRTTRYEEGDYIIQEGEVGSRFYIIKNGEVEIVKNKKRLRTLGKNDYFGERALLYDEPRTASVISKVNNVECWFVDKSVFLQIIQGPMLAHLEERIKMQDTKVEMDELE
Experimental: as §2
as §1, with “Data were analyzed with GraphPad Prism 5.03 by plotting the polarization signal in mPol against the logarithm of the cyclic nucleotide concentration.” left out

[13] = biological target: T10, PfPKG CNB-D (401–542) Q532A (Plasmodium falciparum, UniProt Q8I719, Q532A); type: binding; settings: PfCNB-D Q532A; read-out: EC50 ± SEM (n) competition experiments
T10 construct: 401–542 for CNB-D; His-tag (pQTEV, TEV site) (N, cleaved yes); made in house; host or cells: E. coli TP2000 (delta-cya)
T10 sequence (Q8I719 401-542 Q532A): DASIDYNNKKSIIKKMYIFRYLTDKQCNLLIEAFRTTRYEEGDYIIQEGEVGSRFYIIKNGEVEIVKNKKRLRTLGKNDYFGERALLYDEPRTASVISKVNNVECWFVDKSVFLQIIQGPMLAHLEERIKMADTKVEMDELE
Experimental: as §2
as §1, with “Data were analyzed with GraphPad Prism 5.03 by plotting the polarization signal in mPol against the logarithm of the cyclic nucleotide concentration.” left out

[14] = biological target: T11, PfPKG CNB-D (401–542) D533A (Plasmodium falciparum, UniProt Q8I719, D533A); type: binding; settings: PfCNB-D D533A; read-out: EC50 ± SEM (n) competition experiments
T11 construct: 401–542 for CNB-D; His-tag (pQTEV, TEV site) (N, cleaved yes); made in house; host or cells: E. coli TP2000 (delta-cya)
T11 sequence (Q8I719 401-542 D533A): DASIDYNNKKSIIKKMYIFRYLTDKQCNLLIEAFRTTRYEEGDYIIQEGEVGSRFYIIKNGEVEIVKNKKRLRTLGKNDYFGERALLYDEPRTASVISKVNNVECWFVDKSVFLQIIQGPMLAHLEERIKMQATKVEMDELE
Experimental: as §2
as §1, with “Data were analyzed with GraphPad Prism 5.03 by plotting the polarization signal in mPol against the logarithm of the cyclic nucleotide concentration.” left out

[15] = biological target: T12, PfPKG full regulatory domain (1–542) Q532A (Plasmodium falciparum, UniProt Q8I719, Q532A); type: binding; settings: read-out: EC50 ± SEM (n) competition experiments
T12 construct: PfPKG full regulatory domain (1–542); His-tag (pQTEV, TEV site) (N, cleaved yes); made in house; host or cells: E. coli TP2000 (delta-cya)
T12 sequence (Q8I719 1-542 Q532A): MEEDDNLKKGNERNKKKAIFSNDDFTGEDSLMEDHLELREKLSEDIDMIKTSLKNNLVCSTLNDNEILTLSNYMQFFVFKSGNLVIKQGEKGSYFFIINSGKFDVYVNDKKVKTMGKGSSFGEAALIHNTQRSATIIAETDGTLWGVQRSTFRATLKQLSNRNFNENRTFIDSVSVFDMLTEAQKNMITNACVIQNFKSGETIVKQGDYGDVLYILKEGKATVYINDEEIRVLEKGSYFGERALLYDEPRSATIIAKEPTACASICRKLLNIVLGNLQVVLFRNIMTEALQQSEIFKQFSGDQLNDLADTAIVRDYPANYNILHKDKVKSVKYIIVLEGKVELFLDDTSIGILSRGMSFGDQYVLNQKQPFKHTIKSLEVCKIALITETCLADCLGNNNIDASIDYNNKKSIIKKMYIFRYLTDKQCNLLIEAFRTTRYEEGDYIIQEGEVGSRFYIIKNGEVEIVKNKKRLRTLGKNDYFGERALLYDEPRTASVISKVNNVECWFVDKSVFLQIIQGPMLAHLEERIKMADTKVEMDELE
Experimental: as §2
as §1, with “Data were analyzed with GraphPad Prism 5.03 by plotting the polarization signal in mPol against the logarithm of the cyclic nucleotide concentration.” left out

[16] = biological target: T13, PfPKG full regulatory domain (1–542) R484A (Plasmodium falciparum, UniProt Q8I719, R484A); type: binding; settings: read-out: EC50 ± SEM (n) competition experiments
T13 construct: PfPKG full regulatory domain (1–542); His-tag (pQTEV, TEV site) (N, cleaved yes); made in house; host or cells: E. coli TP2000 (delta-cya)
T13 sequence (Q8I719 1-542 R484A): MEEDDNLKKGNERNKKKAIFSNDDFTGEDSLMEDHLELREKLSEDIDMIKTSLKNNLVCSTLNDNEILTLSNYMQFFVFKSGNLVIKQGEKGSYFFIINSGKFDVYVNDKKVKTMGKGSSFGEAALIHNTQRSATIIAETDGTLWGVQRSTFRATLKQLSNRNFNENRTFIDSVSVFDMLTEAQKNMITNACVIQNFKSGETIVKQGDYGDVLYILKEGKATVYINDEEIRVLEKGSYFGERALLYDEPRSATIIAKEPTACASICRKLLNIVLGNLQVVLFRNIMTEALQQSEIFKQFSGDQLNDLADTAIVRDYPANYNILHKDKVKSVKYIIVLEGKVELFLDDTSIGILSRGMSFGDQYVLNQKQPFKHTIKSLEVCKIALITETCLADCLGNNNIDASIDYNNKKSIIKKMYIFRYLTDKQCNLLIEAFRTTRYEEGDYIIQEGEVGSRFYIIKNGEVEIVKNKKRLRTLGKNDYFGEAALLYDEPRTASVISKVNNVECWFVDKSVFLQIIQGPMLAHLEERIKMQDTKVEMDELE
Experimental: as §2
as §1, with “Data were analyzed with GraphPad Prism 5.03 by plotting the polarization signal in mPol against the logarithm of the cyclic nucleotide concentration.” left out

[17] = biological target: T14, PfPKG CNB-D (401–542) R484A (Plasmodium falciparum, UniProt Q8I719, R484A); type: binding; settings: PfCNB-D R484A; read-out: EC50 ± SEM (n) competition experiments
T14 construct: 401–542 for CNB-D; His-tag (pQTEV, TEV site) (N, cleaved yes); made in house; host or cells: E. coli TP2000 (delta-cya)
T14 sequence (Q8I719 401-542 R484A): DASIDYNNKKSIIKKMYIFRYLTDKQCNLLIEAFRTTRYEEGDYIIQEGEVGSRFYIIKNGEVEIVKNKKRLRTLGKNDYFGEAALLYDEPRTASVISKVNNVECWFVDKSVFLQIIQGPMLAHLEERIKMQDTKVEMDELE
Experimental: as §2
as §1, with “Data were analyzed with GraphPad Prism 5.03 by plotting the polarization signal in mPol against the logarithm of the cyclic nucleotide concentration.” left out

[18] = biological target: T15, PfPKG CNB-D (401–542) R484A/Q532A/D533A (Plasmodium falciparum, UniProt Q8I719, D533A/Q532A/R484A); type: binding; settings: PfCNB-D R484A/Q532A/D533A; read-out: EC50 ± SEM (n) competition experiments
T15 construct: 401–542 for CNB-D; His-tag (pQTEV, TEV site) (N, cleaved yes); made in house; host or cells: E. coli TP2000 (delta-cya)
T15 sequence (Q8I719 401-542 R484A/Q532A/D533A): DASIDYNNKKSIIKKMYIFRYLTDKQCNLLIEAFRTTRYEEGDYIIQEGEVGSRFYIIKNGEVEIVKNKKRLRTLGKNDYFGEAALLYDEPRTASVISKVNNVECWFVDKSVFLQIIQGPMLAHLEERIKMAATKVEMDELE
Experimental: as §2
as §1, with “Data were analyzed with GraphPad Prism 5.03 by plotting the polarization signal in mPol against the logarithm of the cyclic nucleotide concentration.” left out

[19] = biological target: T16, PfPKG PfCNB-A (residues 1–173) (Plasmodium falciparum, UniProt Q8I719); type: binding; settings: competition with 8-Fluo-cGMP, read-out: EC50 ± SEM (n) competition measurements
T16 construct: residues 1–173 for CNB-A; His-tag (pQTEV, TEV site) (N, cleaved yes); made in house; host or cells: E. coli TP2000 (delta-cya)
T16 sequence (Q8I719 1-173): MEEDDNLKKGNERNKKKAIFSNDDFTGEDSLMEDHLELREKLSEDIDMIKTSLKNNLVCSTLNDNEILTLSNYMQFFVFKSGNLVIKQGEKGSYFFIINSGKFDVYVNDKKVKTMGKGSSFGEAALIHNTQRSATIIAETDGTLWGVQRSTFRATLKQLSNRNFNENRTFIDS
Experimental: as §2
as §1, with “Data were analyzed with GraphPad Prism 5.03 by plotting the polarization signal in mPol against the logarithm of the cyclic nucleotide concentration.” left out

Nc1nc2c(ncn2[C@@H]2O[C@@H]3COP(=O)(O)O[C@H]3[C@H]2O)c(=O)[nH]1 [cGMP, Cyclic GMP]
cGMP binding [1]: little to no binding
cGMP binding [2]: could not be detected
EC50 [3]: 1.2 µM
EC50 [4]: 0.215 µM
increase in the activation constant for cGMP (Ka:cGMP) [5]: 10 fold
increase of Ka:cGMP on mutating all three residues [6]: over 28 fold
Ka ± SEM (n), activation constant [7]: 66 nM
Ka ± SEM (n), activation constant [8]: 330 nM
EC50 ([9]; PfCNB-D wild type, competition with 8-Fluo-cGMP, read-out: EC50 ± SEM (n) competition experiments): 0.038 µM and 0.0378 µM
selectivity for cGMP ([9]; PfCNB-D, cGMP over cAMP): over 190 fold
EC50 [10]: 1.4 ± 0.1 µM
EC50 [11]: 0.61 ± 0.05 µM
EC50 [12]: 0.079 ± 0.004 µM
EC50 [13]: 2.4 ± 0.1 µM
EC50 [14]: 0.76 ± 0.04 µM
EC50 [15]: 2.2 ± 0.1 µM
EC50 [16]: 0.96 ± 0.02 µM
EC50 [17]: 3.2 ± 0.4 µM
EC50 [18]: 7 µM and 7.2 µM
EC50 [19]: 1 µM

Nc1nc2c(nc(SCCNC(=S)Nc3ccc4c(c3)C(=O)OC43c4ccc(O)cc4Oc4cc(O)ccc43)n2[C@@H]2O[C@@H]3COP(=O)(O)O[C@H]3[C@H]2O)c(=O)[nH]1 [8-Fluo-cGMP]
affinity of PfCNB-C for the fluorescent nucleotide [1]: very weak affinity
